# In US20260015581A1, “METHODS FOR THE PRODUCTION OF RETINAL CELLS” (MIAMI UNIVERSITY, priority 2018, published 2026):
# Tested on: PGP1-derived RPE
# Assay: Small molecule screen for reprogramming of PGP1-derived RPE to neural retina (induction of fluorescent reporter expression)
# Details: 40 μM; D0, D5 and D10 of treatment (FIG. 21)
# Method: A second small molecule screen tested 180 compounds at a concentration of 40 μM designed to target epigenetic pathways (from the Selleck Chemicals Epigenetic Compounds Library L1900).
row,Molecule,subsequent induction of eGFP expression (retinal ganglion cell reporter) in PGP1-derived RPE
1,BI 847325,subsequently induces the expression of eGFP

# Same assay, conditions: Selleck Chemicals Epigenetic Compounds Library L1900; 40 μM
row,Molecule,induction of Cerulean expression in PGP1-derived RPE
1,O=C(O)c1ccc(O)c2ncccc12 [Carboxy-8-hydroxyquinoline],showed evidence of inducing Cerulean expression
2,CCn1cc(-c2cccc(C(F)(F)F)c2)c2sc(C(=N)NC3CCS(=O)(=O)CC3)cc2c1=O [I-BRD9],showed evidence of inducing Cerulean expression
3,Cc1c(CN2CCC(Nc3ncnc4sc(CC(F)(F)F)cc34)CC2)ccc2[nH]c(C#N)cc12 [MI 463],showed evidence of inducing Cerulean expression
4,CN(C)CCCNC(=O)c1ccc(-c2cc(O)c3ncccc3c2)cc1 [ML324],showed evidence of inducing Cerulean expression
5,CN1CCN(c2ccc(-c3cccc(CN4CCOCC4)c3)cc2NC(=O)c2c[nH]c(=O)cc2C(F)(F)F)CC1 [OICR-9429],showed evidence of inducing Cerulean expression
6,C1=C/COCc2cc(ccc2OCCN2CCCC2)Nc2nccc(n2)-c2cccc(c2)COC/1 [Pacritinib],showed evidence of inducing Cerulean expression
7,O=C(Nc1ccccc1-c1cn2c(CN3CC[C@@H](O)C3)csc2n1)c1ccc2ccccc2c1 [SSRT2183],showed evidence of inducing Cerulean expression
8,COc1cc2c(Nc3ccc(NC(=O)c4ccccc4)cc3)ncnc2cc1OCCCN1CCOCC1 [ZM 447439],showed evidence of inducing Cerulean expression
9,BI 847325,showed evidence of inducing Cerulean expression

# Same assay, conditions: first library of 127 compounds; 5-15 days of treatment; at least 9 different replicates; U0126 39 μM, SC 79 110 μM, KU 0063794 3 μM
row,Molecule,induction of Cerulean expression (blue fluorescent cells) in PGP1-derived RPE
1,COc1ccc(-c2ccc3c(N4CCOCC4)nc(N4C[C@@H](C)O[C@@H](C)C4)nc3n2)cc1CO [KU 0063794],produced blue fluorescent cells
2,CCOC(=O)C1=C(N)Oc2ccc(Cl)cc2C1C(C#N)C(=O)OCC (stereo not shown) [SC 79],produced blue fluorescent cells
3,N#CC(=C(/N)Sc1ccccc1N)/C(C#N)=C(\N)Sc1ccccc1N [U0126],produced blue fluorescent cells
